Reference: ChEMBL document CHEMBL4390668, “Discovery and Structural Optimization of Acridones as Broad-Spectrum Antimalarials” (J Med Chem, 2019)
The source made the active and inactive calls. The rule behind the calls is not given here.

Key:
[1] = Half life in human liver microsomes at 1 uM by LC-MS analysis; assay type: ADME, Microsome
[2] = Apparent elimination half life in ICR mouse plasma at 80 mg/kg, po administered as single dose; assay type: ADME, organism-based; settings: for half-life: ICR, plasma, read-out: betat1/2(app) (converted)
[3] = Mean residence time in ICR mouse plasma at 80 mg/kg, po administered as single dose; assay type: ADME, organism-based
[4] = Apparent clearance in ICR mouse plasma at 80 mg/kg, po administered as single dose; assay type: ADME, organism-based; settings: read-out: CL(app) (converted)
Plasmodium falciparum [5] = assay: Antimalarial activity against multidrug-resistant Plasmodium falciparum 7G8 infected in human erythrocytes by SYBR green 1-based fluorescence assay; assay type: functional, organism-based
Plasmodium berghei [6] = assay: Antimalarial activity against blood stage luciferase-expressing Plasmodium berghei ANKA 676m1cl1 sporozoites infected in C57BL/6 mouse assessed as suppression of parasitemia at 10 mg/kg, po pretreated for 1 day followed by parasite infection and subsequent compound dosing for 2 days measured up to 30 days post-infection by YOYO1 staining based flow cytometry; assay type: functional
[7] = AUC (0 to last) in ICR mouse plasma at 80 mg/kg, po administered as single dose; assay type: ADME, organism-based; set-up: dose 80 mg/kg, route oral, time 0 - last
HepG2 = assay: Cytotoxicity against human HepG2 cells measured after 24 to 36 hrs by resazurin dye based fluorescence assay; assay type: cell-based
[8] = Mutagenicity in Salmonella typhimurium TA100 assessed as increase in revertant colonies up to 10 uM in absence of S9 fraction by Ames test; assay type: toxicity; settings: salmonella enterica subsp. enterica serovar typhimurium
[9] = Cmax in ICR mouse liver at 80 mg/kg, po administered as single dose; assay type: ADME, organism-based; set-up: dose 80 mg/kg, route oral
Plasmodium berghei [10] = assay: Antimalarial activity against luciferase-expressing Plasmodium berghei ANKA 676m1cl1 sporozoites infected in human HepG2A16 cells measured after 45 hrs by luciferase-luciferin based reporter assay; assay type: functional, organism-based; settings: ANKA 676m1cl1, HepG2A16, 45 h
hERG (KCNH2) = hERG (KCNH2) (Homo sapiens, UniProt Q12809); assay: Inhibition of human ERG expressed in CHOK1 cells at 10 uM by automated patch clamp method relative to control; assay type: cell-based; settings: CHO-K1 cells that express hERG
[11] = Apparent elimination half life in ICR mouse liver at 80 mg/kg, po administered as single dose; assay type: ADME, organism-based; settings: read-out: betat1/2(app) (converted)
Plasmodium falciparum [12] = assay: Antimalarial activity against multidrug-resistant Plasmodium falciparum Dd2 infected in human erythrocytes by SYBR green 1-based fluorescence assay; assay type: functional, organism-based
[13] = Cmax in ICR mouse plasma at 80 mg/kg, po administered as single dose; assay type: ADME, organism-based; set-up: dose 80 mg/kg, route oral
[14] = AUC (0 to last) in ICR mouse liver at 80 mg/kg, po administered as single dose; assay type: ADME, organism-based; set-up: dose 80 mg/kg, route oral, time 0 - last
[15] = Mutagenicity in Salmonella typhimurium TA98 assessed as increase in revertant colonies up to 10 uM in absence of S9 fraction by Ames test; assay type: toxicity; settings: salmonella enterica subsp. enterica serovar typhimurium
Plasmodium falciparum [16] = assay: Antimalarial activity against atovaquone-resistant Plasmodium falciparum Tm90-C2B infected in human erythrocytes by SYBR green 1-based fluorescence assay; assay type: functional, organism-based
Plasmodium yoelii [17] = assay: Antimalarial activity against blood stage Plasmodium yoelii MR4 MRA-428 infected in CF1 mouse assessed as suppression of parasitemia administered once daily via oral gavage for 4 days starting from 24 hrs post-infection and measured post-last dose by Giemsa-staining based microscopic analysis; assay type: functional
Plasmodium falciparum [18] = assay: Antimalarial activity against chloroquine-sensitive Plasmodium falciparum D6 infected in human erythrocytes by SYBR green 1-based fluorescence assay; assay type: functional, organism-based
[19] = Selectivity index, ratio of IC50 for human HepG2 cells to IC50 for chloroquine-sensitive Plasmodium falciparum D6 infected in human erythrocytes; assay type: toxicity, cell-based; settings: read-out: Ratio IC50
[20] = Half life in mouse liver microsomes at 1 uM by LC-MS analysis; assay type: ADME, Microsome
[21] = Tmax in ICR mouse liver at 80 mg/kg, po administered as single dose; assay type: ADME, organism-based
[22] = Tmax in ICR mouse plasma at 80 mg/kg, po administered as single dose; assay type: ADME, organism-based
Plasmodium berghei [23] = assay: Antimalarial activity against liver stage luciferase-expressing Plasmodium berghei ANKA 676m1cl1 sporozoites infected in C57BL/6 mouse assessed as suppression of parasitemia at 10 mg/kg, po pretreated for 1 day followed by parasite infection and subsequent compound dosing for 2 days measured at 24 to 48 hrs post-infection by luciferin-based real-time imaging analysis; assay type: functional
[24] = Apparent volume of distribution in ICR mouse plasma at 80 mg/kg, po administered as single dose; assay type: ADME, organism-based; settings: in vivo
[25] = Mean residence time in ICR mouse liver at 80 mg/kg, po administered as single dose; assay type: ADME, organism-based
[26] = Mutagenicity in Salmonella typhimurium TA100 assessed as increase in revertant colonies up to 10 uM in presence of S9 fraction by Ames test; assay type: toxicity, subcellular; settings: salmonella enterica subsp. enterica serovar typhimurium
[27] = AUC (0 to infinity) in ICR mouse plasma at 80 mg/kg, po administered as single dose; assay type: ADME, organism-based; set-up: dose 80 mg/kg, route oral, time infinity; settings: for AUC(0-inf): ICR, plasma
[28] = Mutagenicity in Salmonella typhimurium TA98 assessed as increase in revertant colonies up to 10 uM in presence of S9 fraction by Ames test; assay type: toxicity, subcellular; settings: salmonella enterica subsp. enterica serovar typhimurium
[29] = AUC (0 to infinity) in ICR mouse liver at 80 mg/kg, po administered as single dose; assay type: ADME, organism-based; set-up: dose 80 mg/kg, route oral, time infinity
Plasmodium yoelii [30] = assay: Antimalarial activity against blood stage Plasmodium yoelii MR4 MRA-428 infected in CF1 mouse assessed as suppression of parasitemia at 80 mg/kg, po administered once daily via gavage for 4 days starting from 24 hrs post-infection and measured at weekly intervals for 28 days by Giemsa-staining based microscopic analysis; assay type: functional
[31] = Toxicity in CF1 mouse infected with blood stage Plasmodium yoelii MR4 MRA-428 assessed as clinical toxicity at 80 mg/kg, po administered once daily via gavage for 4 days starting from for 4 days starting from 24 hrs post-infection and measured daily during compound dosing; assay type: organism-based; settings: in vivo
Plasmodium falciparum [32] = assay: Antimalarial activity against drug-resistant Plasmodium falciparum Dd2 harboring V259L mutant infected in human erythrocytes after 72 hrs by SYBR green 1-based fluorescence assay; assay type: functional, organism-based; settings: Dd2, 72 h
Plasmodium falciparum [33] = assay: Antimalarial activity against drug-resistant Plasmodium falciparum 3D7 harboring A82T/V259L double mutant infected in human erythrocytes after 72 hrs by SYBR green 1-based fluorescence assay; assay type: functional, organism-based; settings: 3D7, 72 h
Plasmodium falciparum [34] = assay: Inhibition of Plasmodium falciparum cytochrome b-c1
Plasmodium falciparum [35] = assay: Antimalarial activity against drug-resistant Plasmodium falciparum Dd2 harboring M133I/A138T double mutant infected in human erythrocytes after 72 hrs by SYBR green 1-based fluorescence assay; assay type: functional, organism-based; settings: Dd2, 72 h
[36] = Toxicity in CF1 mouse infected with blood stage Plasmodium yoelii MR4 MRA-428 assessed as behavioral changes at 80 mg/kg, po administered once daily via gavage for 4 days starting from for 4 days starting from 24 hrs post-infection and measured daily during compound dosing; assay type: organism-based; settings: in vivo
Plasmodium falciparum [37] = assay: Antimalarial activity against Plasmodium falciparum 3D7 infected in human erythrocytes after 72 hrs by SYBR green 1-based fluorescence assay; assay type: functional, organism-based; settings: 3D7, 72 h
Plasmodium berghei [38] = assay: Antimalarial activity against liver stage luciferase-expressing Plasmodium berghei ANKA 676m1cl1 sporozoites infected in C57BL/6 mouse assessed as suppression of parasitemia at 40 to 160 mg/kg, po pretreated for 1 day followed by parasite infection and subsequent compound dosing for 2 days measured at 24 to 48 hrs post-infection by luciferin-based real-time imaging analysis; assay type: functional

Sequence of hERG (KCNH2) (Q12809 whole entry): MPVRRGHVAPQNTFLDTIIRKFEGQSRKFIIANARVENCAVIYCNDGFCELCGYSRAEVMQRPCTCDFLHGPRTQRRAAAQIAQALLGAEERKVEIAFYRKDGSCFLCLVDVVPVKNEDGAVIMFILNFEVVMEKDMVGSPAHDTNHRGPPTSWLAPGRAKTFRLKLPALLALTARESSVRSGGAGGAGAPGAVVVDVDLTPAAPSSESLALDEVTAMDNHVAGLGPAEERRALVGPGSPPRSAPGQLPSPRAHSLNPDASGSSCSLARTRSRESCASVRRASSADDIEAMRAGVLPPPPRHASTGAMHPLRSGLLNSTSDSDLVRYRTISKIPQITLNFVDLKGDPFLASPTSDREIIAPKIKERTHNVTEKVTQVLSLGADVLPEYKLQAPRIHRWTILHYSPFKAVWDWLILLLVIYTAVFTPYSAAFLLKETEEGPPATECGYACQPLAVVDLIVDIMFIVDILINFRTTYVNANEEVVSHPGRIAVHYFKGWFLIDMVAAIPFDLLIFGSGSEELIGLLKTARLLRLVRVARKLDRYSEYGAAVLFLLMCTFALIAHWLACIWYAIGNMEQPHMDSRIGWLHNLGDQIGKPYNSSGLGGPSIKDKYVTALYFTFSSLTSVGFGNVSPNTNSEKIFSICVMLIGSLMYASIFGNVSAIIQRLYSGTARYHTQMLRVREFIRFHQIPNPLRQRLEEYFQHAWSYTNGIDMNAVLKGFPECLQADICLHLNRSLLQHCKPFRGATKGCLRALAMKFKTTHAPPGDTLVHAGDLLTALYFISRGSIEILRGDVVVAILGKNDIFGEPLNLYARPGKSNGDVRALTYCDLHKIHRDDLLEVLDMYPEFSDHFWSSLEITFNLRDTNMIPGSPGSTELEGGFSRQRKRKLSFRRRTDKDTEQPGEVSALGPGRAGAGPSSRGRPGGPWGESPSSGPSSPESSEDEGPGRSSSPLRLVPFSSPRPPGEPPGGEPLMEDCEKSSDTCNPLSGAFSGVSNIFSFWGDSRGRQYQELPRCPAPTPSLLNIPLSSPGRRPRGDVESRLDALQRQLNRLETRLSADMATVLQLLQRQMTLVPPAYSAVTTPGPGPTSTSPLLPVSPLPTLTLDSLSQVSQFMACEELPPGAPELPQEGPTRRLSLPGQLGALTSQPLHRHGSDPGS

| SMILES | half-life at 1 µM [1] [h] | half-life [2] [h] | MRT [3] [h] | IC50 (Plasmodium falciparum [5]) [nM] | AUC(0-t) [7] [µg·h/mL] | IC50 (HepG2) [nM] | Cmax [9] [µg/mL] | IC50 (Plasmodium berghei [10]) [nM] | half-life [11] [h] | IC50 (Plasmodium falciparum [12]) [nM] | AUC(0-t) [14] [µg·h/mL] | IC50 (Plasmodium falciparum [16]) [nM] | ED50 (Plasmodium yoelii [17]) [mg/kg.day] | IC50 (Plasmodium falciparum [18]) [nM] | selectivity ratio [19] | half-life at 1 µM [20] [h] | Tmax [21] [h] | Vz [24] [L/kg] | MRT [25] [h] | AUC(0-inf) [29] [µg·h/mL] | also measured |
| --- | --- | --- | --- | --- | --- | --- | --- | --- | --- | --- | --- | --- | --- | --- | --- | --- | --- | --- | --- | --- | --- |
| CCCN(CCC)CCCOc1ccc2c(=O)c3c(F)cc(F)cc3[nH]c2c1 | > 1 | 7.78 | 11.8 | 2.1 | 3.43 | 61500 | 19.7 | 3.4 | 6.59 | 0.49 | 236 | 440 | 0.6 | 0.35 | 176000 | > 1 | 4 | 175.302 | 13.3 | 237 | CL/F [4]: 15.9 L/h/kg; Activity (Plasmodium berghei [6]): 100%; Activity [8]: Non-Toxic; inhibition at 10 µM (hERG (KCNH2)): 102%; Cmax ([13]; ICR, plasma, read-out: Cmax): 0.526 µg/mL; Activity [15]: Non-Toxic; ED90 (Plasmodium yoelii [17]): 2.48 mg/kg.day; Tmax ([22]; ICR, plasma, read-out: Tmax): 7.78 h; Activity (Plasmodium berghei [23]): 100%; Activity [26]: Non-Toxic; AUC(0-inf) [27]: 5.08 µg·h/mL; Activity [28]: Non-Toxic |
| CCCN(CCC)CCOc1ccc2c(=O)c3c(Cl)c(Cl)ccc3[nH]c2c1 | 0.183 | 2.29 | 4.69 | 0.3 | 3.84 | 41600 | 42.3 | 1.1 | 1.84 | 0.05 to 9 | 547 | 142 | 1.04 | 0.17 | 245000 | 0.283 | 7 | 58.684 | 6.07 | 547 | CL/F [4]: 17.7 L/h/kg; Activity (Plasmodium yoelii [30]): 100%; Activity (Plasmodium berghei [6]): 100%; Activity [31]: Non-Toxic; Activity [8]: Non-Toxic; IC50 (Plasmodium falciparum [32]): 216 nM; IC50 (Plasmodium falciparum [33]): 79 nM; inhibition at 10 µM (hERG (KCNH2)): 25%; inhibition (Plasmodium falciparum [34]): inactive; IC50 (Plasmodium falciparum [35]): 50 nM; Cmax ([13]; ICR, plasma, read-out: Cmax): 0.631 µg/mL; Activity [15]: Non-Toxic; ED90 (Plasmodium yoelii [17]): 1.14 mg/kg.day; Activity [36]: Non-Toxic; Tmax ([22]; ICR, plasma, read-out: Tmax): 5.5 h; Activity (Plasmodium berghei [23]): 100%; Activity [26]: Non-Toxic; AUC(0-inf) [27]: 4.52 µg·h/mL; Activity [28]: Non-Toxic |
| CCN(CC)CCOc1ccc2c(=O)c3ccc(Cl)cc3[nH]c2c1 | > 1 | 1.9 | 3.41 | 38 | 5.31 | 36400 | 193 | 113 | 6.7 | 41 to 117 | 1460 | 589 | 48 | 32 | 1140 | > 1 | 1 | 37.689 | 5.59 | 1460 | CL/F [4]: 13.8 L/h/kg; IC50 (Plasmodium falciparum [32]): 2120 nM; IC50 (Plasmodium falciparum [37]): 84 nM; IC50 (Plasmodium falciparum [33]): 1640 nM; inhibition (Plasmodium falciparum [34]): inactive; IC50 (Plasmodium falciparum [35]): 1070 nM; Cmax ([13]; ICR, plasma, read-out: Cmax): 1.35 µg/mL; ED90 (Plasmodium yoelii [17]): 72 mg/kg.day; Tmax ([22]; ICR, plasma, read-out: Tmax): 2 h; Activity (Plasmodium berghei [38]): 100%; AUC(0-inf) [27]: 5.81 µg·h/mL |
| CCCN(CCC)CCOc1ccc2c(=O)c3c(F)cc(F)cc3[nH]c2c1 | 0.267 |  | 10.2 | 0.0003 | 7.56 | 42800 | 3.93 | 1.4 | 13.8 | 0.0003 to 0.23 | 63.9 | 6.8 | 1.12 | 0.0003 | > 100000 | 0.25 | 7 | 657.604 | 8.9 | 102 | betat1/2(app) ([2]; in vivo): 54.24 h; Activity (Plasmodium yoelii [30]): 100%; Activity (Plasmodium berghei [6]): 100%; Activity [31]: Non-Toxic; Activity [8]: Non-Toxic; IC50 (Plasmodium falciparum [32]): 5.5 nM; IC50 (Plasmodium falciparum [37]): 0.3 nM; IC50 (Plasmodium falciparum [33]): 17 nM; inhibition at 10 µM (hERG (KCNH2)): 65%; inhibition (Plasmodium falciparum [34]): inactive; IC50 (Plasmodium falciparum [35]): 0.86 nM; Cmax ([13]; in vivo): 0.099 µg/mL; Activity [15]: Non-Toxic; Activity [36]: Non-Toxic; Tmax ([22]; in vivo): 7 h; Activity (Plasmodium berghei [23]): 100%; Activity [26]: Non-Toxic; AUC ([27]; in vivo): 56.485 µg·h/mL; Activity [28]: Non-Toxic |
